Results as given in ChEMBL document CHEMBL4257221, “Peptides comprising non-natural amino acids and methods of making and using the same” (2016).
Numbered stars: 1 amine (or outer) side, 2 acyl side, 3 side chain; on linkers, the order of the positions; unused ones are H or OH. Square brackets hold non-standard residues; d marks the D form. Peptide text beside a SMILES is read from it. ξ: configuration not given here. X1 = O=C([C@H]1CCC[C@@H]1N[*:1])[*:2]; X2 = O=C([C@H]1CNC[C@@H]1N[*:1])[*:2]; ξβ3hY = NC(CC(=O)O)Cc1ccc(O)cc1; β3hN = NC(=O)C[C@H](N)CC(=O)O; β3hV = CC(C)[C@H](N)CC(=O)O; ξβ3hL = CC(C)CC(N)CC(=O)O; ξβ3hK = NCCCCC(N)CC(=O)O; Aib = CC(C)(N)C(=O)O; βAla = NCCC(=O)O

Assays:
[1] = molecular target: T1, Vasoactive intestinal polypeptide receptor 1 (Homo sapiens, UniProt P32241); experiment: Agonist activity at human VIPR1 expressed in CHOK1 cells assessed as intracellular cAMP accumulation after 60 mins by PathHunter assay; assay type: functional, cell-based
T1 sequence (P32241 whole entry): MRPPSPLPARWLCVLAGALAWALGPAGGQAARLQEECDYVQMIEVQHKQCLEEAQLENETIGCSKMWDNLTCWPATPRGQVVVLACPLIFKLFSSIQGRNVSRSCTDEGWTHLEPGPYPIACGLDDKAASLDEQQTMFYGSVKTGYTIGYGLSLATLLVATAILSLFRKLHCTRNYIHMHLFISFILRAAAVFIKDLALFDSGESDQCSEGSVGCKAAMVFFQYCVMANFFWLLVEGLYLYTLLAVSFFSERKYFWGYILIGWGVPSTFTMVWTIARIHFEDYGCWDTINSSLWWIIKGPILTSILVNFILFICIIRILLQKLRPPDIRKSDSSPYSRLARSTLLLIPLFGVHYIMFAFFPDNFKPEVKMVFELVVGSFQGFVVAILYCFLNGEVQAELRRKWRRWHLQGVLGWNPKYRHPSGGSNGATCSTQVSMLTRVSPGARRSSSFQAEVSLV

[2] = molecular target: T2, Vasoactive intestinal polypeptide receptor 2 (Homo sapiens, UniProt P41587); experiment: Agonist activity at human VIPR2 expressed in CHOK1 cells assessed as intracellular cAMP accumulation after 60 mins by PathHunter assay; assay type: functional, cell-based
T2 sequence (P41587 whole entry): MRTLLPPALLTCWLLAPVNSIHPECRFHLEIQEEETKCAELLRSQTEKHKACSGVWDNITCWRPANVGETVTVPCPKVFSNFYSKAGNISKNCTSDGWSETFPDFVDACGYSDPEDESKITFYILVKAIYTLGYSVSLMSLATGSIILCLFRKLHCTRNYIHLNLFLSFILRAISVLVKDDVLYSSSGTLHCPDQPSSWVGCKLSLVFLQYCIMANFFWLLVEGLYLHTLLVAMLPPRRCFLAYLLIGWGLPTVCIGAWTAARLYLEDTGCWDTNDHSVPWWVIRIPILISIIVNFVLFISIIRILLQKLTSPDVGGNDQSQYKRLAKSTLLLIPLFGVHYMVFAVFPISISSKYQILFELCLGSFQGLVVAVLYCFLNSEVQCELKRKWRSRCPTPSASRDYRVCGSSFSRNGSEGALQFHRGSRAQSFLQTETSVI

| SMILES | EC50 [1] [nM] | EC50 [2] [nM] |
| --- | --- | --- |
| CC(=O)N[C@@H](Cc1cnc[nH]1)C(=O)NC(C)(C)C(=O)N[C@@H](CC(=O)O)C(=O)N[C@@H](C)C(=O)N[C@H](CC(=O)N[C@@H](Cc1ccccc1)C(=O)N[C@H](C(=O)N[C@@H](CCC(=O)O)C(=O)N[C@@H](CC(N)=O)C(=O)N[C@@H](Cc1ccc(O)cc1)C(=O)N[C@H](C(=O)N[C@@H](CCCCN)C(=O)N[C@@H](CC(C)C)C(=O)N[C@@H](CCCNC(=N)N)C(=O)N[C@@H](CCCCN)C(=O)N[C@@H](CCC(N)=O)C(=O)N[C@@H](CC(C)C)C(=O)N[C@@H](C)C(=O)N[C@@H](C)C(=O)N[C@H]1CNC[C@@H]1C(=O)N[C@@H](CCCCN)C(=O)N[C@@H](Cc1ccc(O)cc1)C(=O)N[C@H]1CCC[C@@H]1C(=O)N[C@@H](CC(N)=O)C(=O)N[C@@H](CC(=O)O)C(=O)N[C@@H](CC(C)C)C(=O)NC(CCCCN)CC(=O)N[C@@H](CCCCN)C(=O)NCC(=O)NCCC(=O)N[C@H](C(=O)O)[C@@H](C)O)[C@@H](C)O)[C@@H](C)O)C(C)C (stereo partly drawn) (Ac-H[Aib]DA[β3hV]FTENYTKLRKQLAA[X2]KY[X1]NDL[ξβ3hK]KG[βAla]T-OH) | > 1000 | 0.816 |
| CC(=O)N[C@@H](Cc1cnc[nH]1)C(=O)NC(C)(C)C(=O)N[C@@H](CC(=O)O)C(=O)N[C@@H](C)C(=O)N[C@H](CC(=O)N[C@@H](Cc1ccccc1)C(=O)N[C@H](C(=O)N[C@@H](CCC(=O)O)C(=O)N[C@@H](CC(N)=O)CC(=O)N[C@@H](Cc1ccc(O)cc1)C(=O)N[C@H](C(=O)N[C@@H](CCCCN)C(=O)N[C@@H](CC(C)C)C(=O)N[C@@H](CCCNC(=N)N)C(=O)N[C@@H](CCCCN)C(=O)N[C@@H](CCC(N)=O)C(=O)N[C@@H](CC(C)C)C(=O)N[C@@H](C)C(=O)N[C@@H](C)C(=O)N[C@H]1CNC[C@@H]1C(=O)N[C@@H](CCCCN)C(=O)N[C@@H](Cc1ccc(O)cc1)C(=O)N[C@H]1CCC[C@@H]1C(=O)N[C@@H](CC(N)=O)C(=O)N[C@@H](CC(=O)O)C(=O)N[C@@H](CC(C)C)C(=O)NC(CCCCN)CC(=O)N[C@@H](CCCCN)C(=O)NCC(=O)NCCC(=O)N[C@H](C(=O)O)[C@@H](C)O)[C@@H](C)O)[C@@H](C)O)C(C)C (stereo partly drawn) (Ac-H[Aib]DA[β3hV]FTE[β3hN]YTKLRKQLAA[X2]KY[X1]NDL[ξβ3hK]KG[βAla]T-OH) | > 1000 | 3.47 |
| CC(=O)N[C@@H](Cc1cnc[nH]1)C(=O)N[C@H]1CCC[C@@H]1C(=O)N[C@@H](CC(=O)O)C(=O)N[C@@H](C)C(=O)N[C@H](C(=O)N[C@@H](Cc1ccccc1)C(=O)N[C@H](C(=O)N[C@@H](CCC(=O)O)C(=O)N[C@@H](CC(N)=O)C(=O)N[C@@H](Cc1ccc(O)cc1)C(=O)N[C@H](C(=O)N[C@@H](CCCCN)C(=O)N[C@@H](CC(C)C)C(=O)N[C@@H](CCCNC(=N)N)C(=O)N[C@@H](CCCCN)C(=O)N[C@@H](CCC(N)=O)C(=O)N[C@@H](CC(C)C)C(=O)N[C@@H](C)C(=O)N[C@@H](C)C(=O)N[C@H]1CNC[C@@H]1C(=O)N[C@@H](CCCCN)C(=O)N[C@@H](Cc1ccc(O)cc1)C(=O)N[C@H]1CCC[C@@H]1C(=O)N[C@@H](CC(N)=O)C(=O)N[C@@H](CC(=O)O)C(=O)N[C@@H](CC(C)C)C(=O)NC(CCCCN)CC(=O)N[C@@H](CCCCN)C(=O)NCC(=O)NCCC(=O)N[C@H](C(=O)O)[C@@H](C)O)[C@@H](C)O)[C@@H](C)O)C(C)C (stereo partly drawn) (Ac-H[X1]DAVFTENYTKLRKQLAA[X2]KY[X1]NDL[ξβ3hK]KG[βAla]T-OH) | > 1000 | 0.593 |
| CC(=O)N[C@@H](Cc1cnc[nH]1)C(=O)N[C@H]1CCC[C@@H]1C(=O)N[C@@H](CC(=O)O)C(=O)N[C@@H](C)C(=O)N[C@H]1CCC[C@@H]1C(=O)N[C@@H](Cc1ccccc1)C(=O)N[C@H](C(=O)N[C@@H](CCC(=O)O)C(=O)N[C@H]1CCC[C@@H]1C(=O)N[C@@H](Cc1ccc(O)cc1)C(=O)N[C@H](C(=O)N[C@@H](CCCCN)C(=O)N[C@@H](CC(C)C)C(=O)N[C@@H](CCCNC(=N)N)C(=O)N[C@@H](CCCCN)C(=O)N[C@@H](CCC(N)=O)C(=O)N[C@@H](CC(C)C)C(=O)N[C@@H](C)C(=O)N[C@@H](C)C(=O)N[C@H]1CNC[C@@H]1C(=O)N[C@@H](CCCCN)C(=O)N[C@@H](Cc1ccc(O)cc1)C(=O)N[C@H]1CCC[C@@H]1C(=O)N[C@@H](CC(N)=O)C(=O)N[C@@H](CC(=O)O)C(=O)N[C@@H](CC(C)C)C(=O)NC(CCCCN)CC(=O)N[C@@H](CCCCN)C(=O)NCC(=O)NCCC(=O)N[C@H](C(=O)O)[C@@H](C)O)[C@@H](C)O)[C@@H](C)O (stereo partly drawn) (Ac-H[X1]DA[X1]FTE[X1]YTKLRKQLAA[X2]KY[X1]NDL[ξβ3hK]KG[βAla]T-OH) | > 1000 | 5.58 |
| CC(=O)N[C@@H](Cc1cnc[nH]1)C(=O)N[C@H]1CCC[C@@H]1C(=O)N[C@@H](CC(=O)O)C(=O)N[C@@H](C)C(=O)N[C@H]1CCC[C@@H]1C(=O)N[C@@H](Cc1ccccc1)C(=O)N[C@H](C(=O)N[C@@H](CCC(=O)O)C(=O)N[C@H]1CCC[C@@H]1C(=O)NC(CC(=O)N[C@H](C(=O)N[C@@H](CCCCN)C(=O)N[C@@H](CC(C)C)C(=O)N[C@@H](CCCNC(=N)N)C(=O)N[C@@H](CCCCN)C(=O)NCCC(=O)N[C@@H](CC(C)C)C(=O)N[C@@H](C)C(=O)N[C@@H](C)C(=O)N[C@H]1CNC[C@@H]1C(=O)N[C@@H](CCCCN)C(=O)N[C@@H](Cc1ccc(O)cc1)C(=O)N[C@H]1CCC[C@@H]1C(=O)N[C@@H](CC(N)=O)C(=O)N[C@@H](CC(=O)O)C(=O)N[C@@H](CC(C)C)C(=O)NC(CCCCN)CC(=O)N[C@@H](CCCCN)C(=O)NCC(=O)NCCC(=O)N[C@H](C(=O)O)[C@@H](C)O)[C@@H](C)O)Cc1ccc(O)cc1)[C@@H](C)O (stereo partly drawn) (Ac-H[X1]DA[X1]FTE[X1][ξβ3hY]TKLRK[βAla]LAA[X2]KY[X1]NDL[ξβ3hK]KG[βAla]T-OH) | > 1000 | 1.02 |

The next compounds have a lower EC50 [1] than those just listed; values first:

| EC50 [1] [nM] | EC50 [2] [nM] | SMILES |
| --- | --- | --- |
| 785 | 1.17 | CC(=O)N[C@@H](Cc1cnc[nH]1)C(=O)N[C@H]1CCC[C@@H]1C(=O)N[C@@H](CC(=O)O)C(=O)N[C@@H](C)C(=O)N[C@H]1CCC[C@@H]1C(=O)N[C@@H](Cc1ccccc1)C(=O)N[C@H](C(=O)N[C@@H](CCC(=O)O)C(=O)N[C@H]1CCC[C@@H]1C(=O)NC(CC(=O)N[C@H](C(=O)N[C@@H](CCCCN)C(=O)N[C@@H](CC(C)C)C(=O)N[C@@H](CCCNC(=N)N)C(=O)N[C@@H](CCCCN)C(=O)N[C@@H](CCC(N)=O)C(=O)NC(CC(=O)N[C@@H](C)C(=O)N[C@@H](C)C(=O)N[C@H]1CNC[C@@H]1C(=O)N[C@@H](CCCCN)C(=O)N[C@@H](Cc1ccc(O)cc1)C(=O)N[C@H]1CCC[C@@H]1C(=O)N[C@@H](CC(N)=O)C(=O)N[C@@H](CC(=O)O)C(=O)N[C@@H](CC(C)C)C(=O)NC(CCCCN)CC(=O)N[C@@H](CCCCN)C(=O)NCC(=O)NCCC(=O)N[C@H](C(=O)O)[C@@H](C)O)CC(C)C)[C@@H](C)O)Cc1ccc(O)cc1)[C@@H](C)O (stereo partly drawn) (Ac-H[X1]DA[X1]FTE[X1][ξβ3hY]TKLRKQ[ξβ3hL]AA[X2]KY[X1]NDL[ξβ3hK]KG[βAla]T-OH) |
| 516 | 0.529 | CC(=O)N[C@@H](Cc1cnc[nH]1)C(=O)NC(C)(C)C(=O)N[C@@H](CC(=O)O)C(=O)N[C@@H](C)C(=O)N[C@H](C(=O)N[C@@H](Cc1ccccc1)C(=O)N[C@H](C(=O)N[C@@H](CCC(=O)O)C(=O)N[C@@H](CC(N)=O)C(=O)N[C@@H](Cc1ccc(O)cc1)C(=O)N[C@H](C(=O)N[C@@H](CCCCN)C(=O)N[C@@H](CC(C)C)C(=O)N[C@@H](CCCNC(=N)N)C(=O)N[C@@H](CCCCN)C(=O)N[C@@H](CCC(N)=O)C(=O)N[C@@H](CC(C)C)C(=O)N[C@@H](C)C(=O)N[C@@H](C)C(=O)N[C@H]1CNC[C@@H]1C(=O)N[C@@H](CCCCN)C(=O)N[C@@H](Cc1ccc(O)cc1)C(=O)N[C@H]1CCC[C@@H]1C(=O)N[C@@H](CC(N)=O)C(=O)N[C@@H](CC(=O)O)C(=O)N[C@@H](CC(C)C)C(=O)NC(CCCCN)CC(=O)N[C@@H](CCCCN)C(=O)NCC(=O)NCCC(=O)N[C@H](C(=O)O)[C@@H](C)O)[C@@H](C)O)[C@@H](C)O)C(C)C (stereo partly drawn) (Ac-H[Aib]DAVFTENYTKLRKQLAA[X2]KY[X1]NDL[ξβ3hK]KG[βAla]T-OH) |
| 218 | 0.18 | CC(=O)N[C@@H](Cc1cnc[nH]1)C(=O)N[C@@H](CO)C(=O)N[C@@H](CC(=O)O)C(=O)N[C@@H](C)C(=O)N[C@H](C(=O)N[C@@H](Cc1ccccc1)C(=O)N[C@H](C(=O)N[C@@H](CCC(=O)O)C(=O)N[C@@H](CC(N)=O)C(=O)N[C@@H](Cc1ccc(O)cc1)C(=O)N[C@H](C(=O)N[C@@H](CCCCN)C(=O)N[C@@H](CC(C)C)C(=O)N[C@@H](CCCNC(=N)N)C(=O)N[C@@H](CCCCN)C(=O)N[C@@H](CCC(N)=O)C(=O)N[C@H]1CCC[C@@H]1C(=O)N[C@@H](C)C(=O)N[C@@H](C)C(=O)N[C@H]1CNC[C@@H]1C(=O)N[C@@H](CCCCN)C(=O)N[C@@H](Cc1ccc(O)cc1)C(=O)N[C@@H](CC(C)C)C(=O)N[C@H]1CCC[C@@H]1C(=O)N[C@@H](CC(=O)O)C(=O)N[C@@H](CC(C)C)C(=O)NC(CCCCN)CC(=O)N[C@@H](CCCCN)C(=O)NCC(=O)NCC(=O)N[C@H](C(=O)O)[C@@H](C)O)[C@@H](C)O)[C@@H](C)O)C(C)C (stereo partly drawn) (Ac-HSDAVFTENYTKLRKQ[X1]AA[X2]KYL[X1]DL[ξβ3hK]KGGT-OH) |
